Reference: US10155259B2 (Merck Sharp & Dohme B.V., priority 2011, dated 2018)

target: T1, human FSH receptor (Homo sapiens, UniProt P23945); test: Antagonistic activity of compounds at the human FSH receptor expressed in CHO cells (CRE-luciferase reporter); format: cell-based; conditions: CHO cells stably transfected with human FSH receptor and CRE/luciferase reporter; together with 49 μM recFSH; 4 hours incubation; 1% DMSO; read-out: IC50 (concentration of test compound causing half-maximal inhibition of the maximally attainable inhibition of the luciferase stimulation)
T1 construct: expressed in transfected cells; host or cells: CHO cells, stably transfected; cotransfected with CRE-luciferase reporter
T1 sequence (P23945 18-695): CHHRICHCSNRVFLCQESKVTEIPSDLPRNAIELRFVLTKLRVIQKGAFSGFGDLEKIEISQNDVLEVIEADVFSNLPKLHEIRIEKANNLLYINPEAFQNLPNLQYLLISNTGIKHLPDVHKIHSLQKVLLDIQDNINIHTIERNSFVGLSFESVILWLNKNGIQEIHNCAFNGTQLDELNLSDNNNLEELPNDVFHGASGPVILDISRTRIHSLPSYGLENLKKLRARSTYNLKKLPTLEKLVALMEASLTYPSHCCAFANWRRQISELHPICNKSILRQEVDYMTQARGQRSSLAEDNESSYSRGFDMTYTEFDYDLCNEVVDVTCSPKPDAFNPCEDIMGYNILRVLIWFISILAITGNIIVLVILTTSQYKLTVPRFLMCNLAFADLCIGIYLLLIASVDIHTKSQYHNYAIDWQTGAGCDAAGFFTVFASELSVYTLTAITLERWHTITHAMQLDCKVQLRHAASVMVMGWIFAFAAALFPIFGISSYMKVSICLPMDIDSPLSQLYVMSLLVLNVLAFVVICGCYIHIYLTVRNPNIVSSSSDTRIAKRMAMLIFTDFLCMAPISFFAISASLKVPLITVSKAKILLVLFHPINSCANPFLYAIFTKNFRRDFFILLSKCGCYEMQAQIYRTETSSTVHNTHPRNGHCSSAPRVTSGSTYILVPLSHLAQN
Protocol: Antagonistic Activity of Compounds at the Human FSH Receptor Expressed in CHO Cells
Antagonistic activity of the compounds at the human FSH receptor was determined in Chinese Hamster Ovary (CHO) cells stably transfected with the human FSH receptor and cotransfected with a cAMP responsive element (CRE)/promotor directing the expression of a firefly luciferase reporter gene. Binding of the compounds to the Gs protein-coupled FSH receptor will result in an increase of cAMP, which in turn will induce an increased transactivation of the luciferase reporter. The cells (7,500 cells/well of a 384 well plate) were incubated in Dulbecco' minimal essential F12 modified medium (Invitrogen), supplemented with 1 μg/ml bovine insulin, 5 μg/ml human apo-transferrin, 100 U/ml penicillin G and 100 μg/ml streptomycin with the test compounds (concentration between 0.316 nM and 10.0 μM) in duplicate together with […] (which, at this concentration in the absence of test compound, induces 80% of the maximal luciferase stimulation) in a humidified atmosphere (95%) at 5-7% CO2 and 37° C. The final concentration of DMSO was 1%. After 4 hours of incubation, plates were allowed to adjust to room temperature for 1 hour. Then, SteadyLite (PerkinElmer) solution was added to the wells and cells were allowed to lyse for at least 1 hour at room temperature. Subsequently, luciferase activity was measured in a luminescence counter. The signal is expressed as counts per second (cps). The IC50 (concentration of test compound causing half-maximal (50%) inhibition of the maximally attainable inhibition of the luciferase stimulation by the compound) and efficacy of the compounds were determined using the software program MathIQ (version 2.3, ID Business Solutions Limited).

SMILES | IC50
COc1cc2c(cc1OC(C)C)-c1cc(C(=O)N[C@@H](CO)Cc3c[nH]c4ccccc34)c(C(=O)C3CC3)n1CC2 [Example 27, (R)-3-(cyclopropanecarbonyl)-N-(1-hydroxy-3-(1H-indol-3-yl)propan-2-yl)-9-isopropoxy-8-methoxy-5,6-dihydropyrrolo[2,1-a]isoquinoline-2-carboxamide] | < 100 nM
COc1cc2c(cc1OC(C)C)-c1cc(C(=O)N[C@@H](CO)Cc3c[nH]c4ccccc34)c(C(=O)c3cccs3)n1CC2 [Example 28, (R)—N-(1-hydroxy-3-(1H-indol-3-yl)propan-2-yl)-9-isopropoxy-8-methoxy-3-(thiophene-2-carbonyl)-5,6-dihydropyrrolo[2,1-a]isoquinoline-2-carboxamide] | < 100 nM
COc1cc2c(cc1OC(C)C)-c1cc(C(=O)N[C@@H](CO)Cc3c[nH]c4ccccc34)c(C(=O)c3ccccc3)n1CC2 [Example 29, (R)-3-benzoyl-N-(1-hydroxy-3-(1H-indol-3-yl)propan-2-yl)-9-isopropoxy-8-methoxy-5,6-dihydropyrrolo[2,1-a]isoquinoline-2-carboxamide] | < 100 nM
CC(C)Oc1cc2c(cc1OC(C)C)-c1cc(C(=O)N[C@@H](CO)Cc3c[nH]c4ccccc34)c(-c3ccccc3)n1CC2 [Example 30, (R)—N-(1-hydroxy-3-(1H-indol-3-yl)propan-2-yl)-8,9-diisopropoxy-3-phenyl-5,6-dihydropyrrolo[2,1-a]isoquinoline-2-carboxamide] | 100 to 1000 nM
COc1cc2c(cc1OCc1ccccc1)-c1cc(C(=O)N[C@@H](CO)Cc3c[nH]c4ccccc34)c(-c3cccc(F)c3)n1CC2 [Example 34, (R)-9-(benzyloxy)-3-(3-fluorophenyl)-N-(1-hydroxy-3-(1H-indol-3-yl)propan-2-yl)-8-methoxy-5,6-dihydropyrrolo[2,1-a]isoquinoline-2-carboxamide] | < 100 nM
COc1cc2c(cc1OC1CCCC1)-c1cc(C(=O)N[C@@H](CO)Cc3c[nH]c4ccccc34)c(-c3cccc(F)c3)n1CC2 [Example 35] | < 100 nM
COc1cc2c(cc1OCC(O)CO)-c1cc(C(=O)N[C@@H](CO)Cc3c[nH]c4ccccc34)c(-c3cccs3)n1CC2 (stereo partly drawn) [Example 40, 9-(2,3-dihydroxypropoxy)-N—((R)-1-hydroxy-3-(1H-indol-3-yl)propan-2-yl)-8-methoxy-3-(thiophen-2-yl)-5,6-dihydropyrrolo[2,1-a]isoquinoline-2-carboxamide] | < 100 nM
C=CCOc1cc2c(cc1OC)CCn1c-2cc(C(=O)N[C@@H](CO)Cc2c[nH]c3ccccc23)c1-c1cccs1 [Example 41] | < 100 nM
COc1cc2c(cc1-c1cccnc1)-c1cc(C(=O)N[C@@H](CO)Cc3c[nH]c4ccccc34)c(-c3cccc(F)c3)n1CC2 [Example 42, (R)-3-(3-fluorophenyl)-N-(1-hydroxy-3-(1H-indol-3-yl)propan-2-yl)-8-methoxy-9-(pyridin-3-yl)-5,6-dihydropyrrolo[2,1-a]isoquinoline-2-carboxamide] | < 100 nM
COc1cc2c(cc1C(=O)N1CCOCC1)-c1cc(C(=O)N[C@@H](CO)Cc3c[nH]c4ccccc34)c(-c3cccc(F)c3)n1CC2 [Example 47, (R)-3-(3-fluorophenyl)-N-(1-hydroxy-3-(1H-indol-3-yl)propan-2-yl)-8-methoxy-9-(morpholine-4-carbonyl)-5,6-dihydropyrrolo[2,1-a]isoquinoline-2-carboxamide] | 100 to 1000 nM

Continued, values first:

IC50 | SMILES
100 to 1000 nM | COc1cc2c(cc1O)-c1cc(C(=O)N[C@@H](CO)Cc3c[nH]c4ccccc34)c(-c3cccc(F)c3)n1CC2 [Example 31, (R)-3-(3-fluorophenyl)-9-hydroxy-N-(1-hydroxy-3-(1H-indol-3-yl)propan-2-yl)-8-methoxy-5,6-dihydropyrrolo[2,1-a]isoquinoline-2-carboxamide]
100 to 1000 nM | C=CCOc1cc2c(cc1OC)CCn1c-2cc(C(=O)N[C@@H](CO)Cc2c[nH]c3ccccc23)c1-c1cccc(F)c1 [Example 32, (R)-9-(allyloxy)-3-(3-fluorophenyl)-N-(1-hydroxy-3-(1H-indol-3-yl)propan-2-yl)-8-methoxy-5,6-dihydropyrrolo[2,1-a]isoquinoline-2-carboxamide]
< 100 nM | COCCOc1cc2c(cc1OC)CCn1c-2cc(C(=O)N[C@@H](CO)Cc2c[nH]c3ccccc23)c1-c1cccc(F)c1 [Example 33, (R)-3-(3-fluorophenyl)-N-(1-hydroxy-3-(1H-indol-3-yl)propan-2-yl)-8-methoxy-9-(2-methoxyethoxy)-5,6-dihydropyrrolo[2,1-a]isoquinoline-2-carboxamide]
< 100 nM | COc1cc2c(cc1OCC1CC1)-c1cc(C(=O)N[C@@H](CO)Cc3c[nH]c4ccccc34)c(-c3cccc(F)c3)n1CC2 [Example 36, (R)-9-(cyclopropylmethoxy)-3-(3-fluorophenyl)-N-(1-hydroxy-3-(1H-indol-3-yl)propan-2-yl)-8-methoxy-5,6-dihydropyrrolo[2,1-a]isoquinoline-2-carboxamide]
< 100 nM | CCCC(C)Oc1cc2c(cc1OC)CCn1c-2cc(C(=O)N[C@@H](CO)Cc2c[nH]c3ccccc23)c1-c1cccc(F)c1 (stereo partly drawn) [Example 37, 3-(3-fluorophenyl)-N—((R)-1-hydroxy-3-(1H-indol-3-yl)propan-2-yl)-8-methoxy-9-(pentan-2-yloxy)-5,6-dihydropyrrolo[2,1-a]isoquinoline-2-carboxamide]
< 100 nM | COc1cc2c(cc1OCCO)-c1cc(C(=O)N[C@@H](CO)Cc3c[nH]c4ccccc34)c(-c3cccc(F)c3)n1CC2 [Example 38, (R)-3-(3-fluorophenyl)-N-(1-hydroxy-3-(1H-indol-3-yl)propan-2-yl)-9-(2-hydroxyethoxy)-8-methoxy-5,6-dihydropyrrolo[2,1-a]isoquinoline-2-carboxamide]
100 to 1000 nM | COc1cc2c(cc1OCCN(C)C)-c1cc(C(=O)N[C@@H](CO)Cc3c[nH]c4ccccc34)c(-c3cccc(F)c3)n1CC2 [Example 39, (R)-9-(2-(dimethylamino)ethoxy)-3-(3-fluorophenyl)-N-(1-hydroxy-3-(1H-indol-3-yl)propan-2-yl)-8-methoxy-5,6-dihydropyrrolo[2,1-a]isoquinoline-2-carboxamide]
< 100 nM | CCc1cc2c(cc1OC)CCn1c-2cc(C(=O)N[C@@H](CO)Cc2c[nH]c3ccccc23)c1-c1cccc(F)c1 [Example 43, (R)-9-ethyl-3-(3-fluorophenyl)-N-(1-hydroxy-3-(1H-indol-3-yl)propan-2-yl)-8-methoxy-5,6-dihydropyrrolo[2,1-a]isoquinoline-2-carboxamide]
< 100 nM | COc1cc2c(cc1C(C)C(C)C)-c1cc(C(=O)N[C@@H](CO)Cc3c[nH]c4ccccc34)c(-c3cccc(F)c3)n1CC2 (stereo partly drawn) [Example 44, 3-(3-fluorophenyl)-N—((R)-1-hydroxy-3-(1H-indol-3-yl)propan-2-yl)-8-methoxy-9-(3-methylbutan-2-yl)-5,6-dihydropyrrolo[2,1-a]isoquinoline-2-carboxamide]
< 100 nM | COc1cc2c(cc1C=C(C)C)-c1cc(C(=O)N[C@@H](CO)Cc3c[nH]c4ccccc34)c(-c3cccc(F)c3)n1CC2 [Example 45, (R)-3-(3-fluorophenyl)-N-(1-hydroxy-3-(1H-indol-3-yl)propan-2-yl)-8-methoxy-9-(2-methylprop-1-enyl)-5,6-dihydropyrrolo[2,1-a]isoquinoline-2-carboxamide]
100 to 1000 nM | COc1cc2c(cc1C(C)=C(C)C)-c1cc(C(=O)N[C@@H](CO)Cc3c[nH]c4ccccc34)c(-c3cccc(F)c3)n1CC2 [Example 46, (R)-3-(3-fluorophenyl)-N-(1-hydroxy-3-(1H-indol-3-yl)propan-2-yl)-8-methoxy-9-(3-methylbut-2-en-2-yl)-5,6-dihydropyrrolo[2,1-a]isoquinoline-2-carboxamide]
